We go through one molecule from patent US8541649B2, “Brassinosteroid regulated kinases (BRKs) that mediate brassinosteroid signal transduction and uses thereof” (priority 2008, dated 2013).

Molecules are shown by their SMILES.

In one experiment the target is T1, BRI1-GFP and BRK1-myc (Arabidopsis thaliana, UniProt O22476).
T1 construct: expressed in transfected cells; host or cells: transgenic Arabidopsis plants (rosette leaves, microsomal fraction)
T1 sequence (O22476 24-1196): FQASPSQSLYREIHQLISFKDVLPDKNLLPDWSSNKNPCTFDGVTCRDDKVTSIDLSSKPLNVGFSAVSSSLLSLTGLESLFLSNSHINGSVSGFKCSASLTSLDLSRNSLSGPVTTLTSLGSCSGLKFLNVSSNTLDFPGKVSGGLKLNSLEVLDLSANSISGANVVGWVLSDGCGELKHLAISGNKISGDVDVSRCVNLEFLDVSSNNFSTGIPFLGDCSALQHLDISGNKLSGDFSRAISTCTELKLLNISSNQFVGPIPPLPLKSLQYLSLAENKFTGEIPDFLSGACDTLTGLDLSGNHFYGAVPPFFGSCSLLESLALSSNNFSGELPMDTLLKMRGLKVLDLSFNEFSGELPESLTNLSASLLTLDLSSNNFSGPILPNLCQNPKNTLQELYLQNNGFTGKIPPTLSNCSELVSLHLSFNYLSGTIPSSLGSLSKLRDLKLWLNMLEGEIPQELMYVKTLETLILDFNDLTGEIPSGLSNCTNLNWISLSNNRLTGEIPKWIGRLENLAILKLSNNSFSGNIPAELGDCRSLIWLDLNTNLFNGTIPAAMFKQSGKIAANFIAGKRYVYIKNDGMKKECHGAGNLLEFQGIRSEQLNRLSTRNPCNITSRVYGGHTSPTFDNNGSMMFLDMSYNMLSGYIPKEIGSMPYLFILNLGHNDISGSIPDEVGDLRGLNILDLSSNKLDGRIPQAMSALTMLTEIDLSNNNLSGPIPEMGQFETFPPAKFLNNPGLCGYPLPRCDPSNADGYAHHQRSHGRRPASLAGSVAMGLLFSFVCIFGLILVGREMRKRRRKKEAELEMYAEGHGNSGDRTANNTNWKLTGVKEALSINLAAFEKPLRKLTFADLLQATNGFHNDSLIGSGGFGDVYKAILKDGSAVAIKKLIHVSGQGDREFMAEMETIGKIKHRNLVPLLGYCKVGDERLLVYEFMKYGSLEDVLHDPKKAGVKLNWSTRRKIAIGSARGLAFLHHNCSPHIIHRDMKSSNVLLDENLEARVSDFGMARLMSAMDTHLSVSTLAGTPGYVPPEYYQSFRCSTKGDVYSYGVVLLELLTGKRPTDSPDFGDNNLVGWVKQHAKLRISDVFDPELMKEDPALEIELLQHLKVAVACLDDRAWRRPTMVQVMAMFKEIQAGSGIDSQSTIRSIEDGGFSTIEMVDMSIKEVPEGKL
T1 sequence (Q94F62 26-615 partner): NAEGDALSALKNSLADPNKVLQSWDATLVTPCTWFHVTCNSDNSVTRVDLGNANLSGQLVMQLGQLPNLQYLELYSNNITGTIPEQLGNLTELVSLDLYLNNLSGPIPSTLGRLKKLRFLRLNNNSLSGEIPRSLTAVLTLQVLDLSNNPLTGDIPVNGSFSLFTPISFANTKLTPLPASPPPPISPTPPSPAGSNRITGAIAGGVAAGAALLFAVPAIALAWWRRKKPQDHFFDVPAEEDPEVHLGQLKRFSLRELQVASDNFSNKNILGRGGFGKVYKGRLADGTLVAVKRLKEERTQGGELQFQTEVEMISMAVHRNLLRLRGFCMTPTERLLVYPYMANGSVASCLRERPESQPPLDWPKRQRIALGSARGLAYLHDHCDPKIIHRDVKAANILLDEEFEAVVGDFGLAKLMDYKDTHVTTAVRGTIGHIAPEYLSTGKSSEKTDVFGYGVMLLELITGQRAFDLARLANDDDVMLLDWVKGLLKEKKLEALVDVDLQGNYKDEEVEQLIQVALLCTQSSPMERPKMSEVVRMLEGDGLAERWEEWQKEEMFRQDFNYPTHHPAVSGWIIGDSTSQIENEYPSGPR
The experiment is described as follows: Co-immunoprecipitation of BRI1 with BRK1. The conditions noted are these: 100 nM brassinolide for 30 min; microsomal proteins immunoprecipitated with anti-GFP antibodies; plants co-expressing BRK1-myc and BRI1-GFP (FIG. 2D). The experiment is classed as in vivo. On the procedure: FIGS. 2A-2D show BRK1 is a substrate of BRI1. FIGS. 2A and 2B show BRI1 phosphorylates serine230 of BRK1 in vitro. […] YFP fluorescence images of N. benthamiana leaf epidermal cells co-transformed with the indicated constructs. […] Arabidopsis plants expressing BRK1-myc only (lanes 1 and 4) or co-expressing BRK1-myc and BRI1-GFP (lanes 2, 3, 5, 6) were treated with 100 nM brassinolide (BL+) or mock solution (BL−) for 30 min. Microsomal proteins (lanes 1 to 3) were immunprecipitated with anti-GFP antibodies (lanes 4 to 6), and the immunoblot was probed using anti-GFP antibodies or anti-myc antibodies.
All procedures were performed at 4° C. Rosette leaves of 3-week-old Arabidopsis plants were homogenized with mortar and pestle in the grinding buffer (20 mM HEPES, pH 7.5, 40 mM KCl, 250 mM sucrose, 5 mM MgCl2 and protein inhibitors) at a ratio of 3 mL buffer per gram of tissue. Homogenate was filtered through 2 layers of Miracloth (CalBiochem, La Jolla, Calif.), and centrifuged at 10,000 g for 10 minutes. The supernatant was further centrifuged at 100,000 g for 60 min to pellet the microsomal fraction. Microsomes were re-suspended in 0.5 mL grinding buffer and sonicated for 10 sec. Triton X-100 was added to a final concentration of 1%. After mixing, the extracts were centrifuged at 20,000 g for 10 min. […] Samples were analyzed by SDS-PAGE and immunoblotting.

The test system of another experiment is wild type plants. The experiment is described as follows: Hypocotyl and root growth assay. The experiment is classed as in vivo, Arabidopsis thaliana. The settings on record: wild type plants grown in the light. On the procedure: The det2-1 and bzr1-1D mutants are in Arabidopsis thaliana Columbia ecotype background, and bri1-5 is in the WS ecotype. For hypocotyl and root growth assay, seedlings were grown on vertical phytoagar plate containing ^1/2 MS medium and 1% sucrose (pH 5.7) in the dark for 4 days or under continuous light for 7 days. Confocal microscopy and BiFC analysis were performed according to Gampala et al. (Gampala et al., Dev Cell 13, 177 (August, 2007)).
Arabidopsis seeds were surface sterilized by first soaking in 70% ethanol plus 0.1% Triton X-100 for 15 min followed by soaking in 96% ethanol for another 10 mins. Sterilized seeds were air dried in the hood and sowed on agar plate of Murashige and Skoog (MS) medium or MS plate plus BRZ or Brassinolide. The seeds were incubated at 4° C. for 3 days to synchronize germination and then grown for 4 days in dark or 7 days under continuous light before taking pictures for measurement. For measurement of hypocotyls or root growth, the plates were first scanned using a image scanner at a resolution of 300 dpi, and the images were input into computer software Image J to measure the root or hypocotyl length.

Take `CC(C)[C@H](C)[C@@H](O)[C@H](O)[C@@H](C)[C@H]1CC[C@H]2[C@@H]3COC(=O)[C@H]4C[C@H](O)[C@H](O)C[C@]4(C)[C@H]3CC[C@]12C` [Brassinolide]: at BRI1-GFP and BRK1-myc, the “amount of the co-immunoprecipitated BRK1-myc” value was 46 % of the untreated sample. In the experiment with wild type plants, the hypocotyl elongation entry is “increases hypocotyl elongation” and the root growth entry is listed as “inhibits root growth”.
